Experimental data from patent US20150368248A1, “2-SUBSTITUTED-6-BIARYLMETHYLAMINO-9-CYCLOPENTYL-9H-PURINE DERIVATIVES, USE THEREOF AS MEDICAMENTS, AND PHARMACEUTICAL COMPOSITIONS” (UNIVERZITA PALACKEHO V OLOMOUCI, priority 2013, published 2015).

Legend:
Hep3B = assay: MTT cytotoxicity assay (Example 30); assay type: cell-based, human; conditions: Homo sapiens, Hep3B, 72 h; MTT, three days after drug addition; read-out: Inhibitory concentration IC50, Hep3B
HUH-7 = assay: MTT cytotoxicity assay (Example 30); assay type: cell-based; conditions: Homo sapiens, Huh-7, 72 h; MTT, three days after drug addition; read-out: Inhibitory concentration IC50, HUH-7
HCC-1.1 (3sp) = assay: MTT cytotoxicity assay (Example 30); assay type: cell-based; conditions: Homo sapiens, 72 h; MTT, three days after drug addition; read-out: Inhibitory concentration IC50, 3sp
PLC/PRF/5 = assay: MTT cytotoxicity assay (Example 30); assay type: cell-based; conditions: Homo sapiens, PLC-PRF-5, 72 h; MTT, three days after drug addition; read-out: Inhibitory concentration IC50, PLC/PRF/5
HCC-1.2 (3p) = assay: MTT cytotoxicity assay (Example 30); assay type: cell-based; conditions: Homo sapiens, HCC-1.2, 72 h; MTT, three days after drug addition; read-out: Inhibitory concentration IC50, 3p
HepG2 = assay: MTT cytotoxicity assay (Example 30); assay type: cell-based; conditions: Homo sapiens, HepG2, 72 h; MTT, three days after drug addition; read-out: Inhibitory concentration IC50, HepG2
Procedure, shortened: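 HepG2 cells in EMEM with 10% FBS, seeded at 10000 per well, dosed next day in triplicate at various concentrations. Three days later MTT added for 4 h; formazan dissolved in DMSO and absorbance read at 570 nm.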

[1] = system: p53-regulated transcription in Arn8 cells; assay: p53-dependent transcriptional activity, β-galactosidase reporter; assay type: cell-based; conditions: 24 h incubation
Procedure, shortened: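 Arn8 melanoma cells stably carrying the p53-responsive pRGCAfoslacZ reporter, exposed to compounds for 24 h. Cells permeabilised with 0.3% Triton X-100 for 15 min, then given 80 μM 4-methylumbelliferyl-β-D-galactopyranoside. β-Galactosidase product fluorescence read after 1 h at 355/460 nm.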

melting point [°C]	SMILES	IC50 (Hep3B) [µM]	IC50 (HUH-7) [µM]	IC50 (HCC-1.1 (3sp)) [µM]	IC50 (PLC/PRF/5) [µM]	IC50 (HCC-1.2 (3p)) [µM]	IC50 (HepG2) [µM]	Concentration of maximum activation [1] [nM]
168 to 170	Nc1ccccc1-c1ccc(CNc2nc(NC3CCC(N)CC3)nc3c2ncn3C2CCCC2)cc1 (stereo not drawn) [BP32, N^2-(4-amino-cyclohexyl)-9-cyclopentyl-N^6-(2′-amino-biphenyl-4-ylmethyl)-9H-purine-2,6-diamine]	0.4	0.647	0.687	0.122	0.543	> 1	895
139 to 140	NC1CCC(Nc2nc(NCc3ccc(-c4ccsc4)nc3)c3ncn(C4CCCC4)c3n2)CC1 (stereo not drawn) [BP35, N^2-(4-amino-cyclohexyl)-9-cyclopentyl-N^6-(6-thiophen-3-yl-pyridin-3-ylmethyl)-9H-purine-2,6-diamine]	0.207	0.257	0.328	0.037	0.218	0.278	230
165 to 167	NC1CCC(Nc2nc(NCc3ccc(-c4ccoc4)nc3)c3ncn(C4CCCC4)c3n2)CC1 (stereo not drawn) [BP36, N^2-(4-amino-cyclohexyl)-9-cyclopentyl-N^6-(6-furan-3-yl-pyridin-3-ylmethyl)-9H-purine-2,6-diamine]	0.13	0.332	0.424	0.018	0.258	0.131	125
